The numbers were not newly measured in US20240115654A1, “INTRAVENOUS ADMINISTRATION OF ENGINEERED ANTIMICROBIAL AMPHIPHILIC PEPTIDES” (priority 2021, published 2024), which cites them from elsewhere.

This series has as its system Pseudomonas aeruginosa ATCC 27853 (non-MDR; QC). Particulars: P. aeruginosa ATCC 27853; established CLSI QC range; cited from earlier work.

With Colistin [reference compound], the “MIC QC range (in parentheses under the MIC)” value is on record as “(0.5-4) μg/mL”.
